This is an account of results in ChEMBL document CHEMBL3045093, “Synthesis, spectral correlation and insect antifeedant activities of some 2-benzimidazole chalcones” (J Saudi Chem Soc, 2013).

Active and inactive are the calls of the source. The calls are words filed in the database; no cut-off is given here.

In the first assay the test system is Achaea janata. The assay is described as follows: Antifeedant activity against 4th instar larvae of Achaea janata in […] leaves assessed as total leaf disc consumed at 150 ppm after 24 hrs by leaf disc bioassay. Type of assay: functional, organism-based.
Turning to `O=C(/C=C/c1ccc(Br)cc1)c1nc2ccccc2[nH]1`, the outcome was Active.

The test system of a further assay is Achaea janata. Nature of the assay: Antifeedant activity against 4th instar larvae of Achaea janata in […] leaves assessed as total leaf disc consumed at 200 ppm after 24 hrs by leaf disc bioassay. Type of assay: functional, organism-based.
For `COc1ccc(/C=C/C(=O)c2nc3ccccc3[nH]2)cc1`, the result was Active.
With `O=C(/C=C/c1ccc(Cl)cc1)c1nc2ccccc2[nH]1`, the result was Active.
For `Cc1ccccc1/C=C/C(=O)c1nc2ccccc2[nH]1`, the outcome was Active.
For `O=C(/C=C/c1cccc(Br)c1)c1nc2ccccc2[nH]1`, the outcome was Active.
In the case of `O=C(/C=C/c1ccccc1[N+](=O)[O-])c1nc2ccccc2[nH]1`, the outcome was Active.
The same measure, in the same setting: in the case of `O=C(/C=C/c1ccccc1Br)c1nc2ccccc2[nH]1` it was “Active”; in that of `O=C(/C=C/c1ccccc1)c1nc2ccccc2[nH]1`, “Active”; in that of `O=C(/C=C/c1ccc(F)cc1)c1nc2ccccc2[nH]1`, “Active”.
On the same count and under the same terms, the same measure for `O=C(/C=C/c1cccc([N+](=O)[O-])c1)c1nc2ccccc2[nH]1`: “Active”; for `O=C(/C=C/c1ccc(Br)cc1)c1nc2ccccc2[nH]1`: “Active”.
Consider `COc1ccccc1/C=C/C(=O)c1nc2ccccc2[nH]1`, for which the outcome was Active.
As for `CN(C)c1ccc(/C=C/C(=O)c2nc3ccccc3[nH]2)cc1`, the outcome was Active.
In the case of `O=C(/C=C/c1cccc(Cl)c1)c1nc2ccccc2[nH]1`, the outcome was Active.
In the case of `O=C(/C=C/c1ccccc1O)c1nc2ccccc2[nH]1`, the result was Active.
Consider `O=C(/C=C/c1cccc(O)c1)c1nc2ccccc2[nH]1`, for which the result was Active.
On to `Cc1cccc(/C=C/C(=O)c2nc3ccccc3[nH]2)c1`, for which the result was Active.
Still for that read-out and setting: the same measure for `O=C(/C=C/c1ccccc1Cl)c1nc2ccccc2[nH]1`: “Active”; for `O=C(/C=C/c1ccc(O)cc1)c1nc2ccccc2[nH]1`: “Active”; for `COc1cccc(/C=C/C(=O)c2nc3ccccc3[nH]2)c1`: “Active”.
Take `O=C(/C=C/c1ccc([N+](=O)[O-])cc1)c1nc2ccccc2[nH]1`: the outcome was Active.
Still for that read-out and setting: the same measure for `Cc1ccc(/C=C/C(=O)c2nc3ccccc3[nH]2)cc1`: “Active”.
